Results from paper PMC6165478, “Wine and Olive Oil Phenolic Compounds Interaction in Humans” (Diseases, 2018).
Several values for one entry are separate records, joined by “and”; a condition that tells them apart may be missing. Equal values may be shown once. Marks after values point to notes of the source that are not given here.

Assays:
[1] = Urinary recovery of RESV, its isomers and dihydro-RESV (GC-MS after enzymatic hydrolysis), crossover clinical trial; settings: for RESV urinary recovery from 0 to 6 h: urine 0-6 h, n = 12, mean ± SD
Protocol: The study consisted of a crossover randomized clinical trial with three different interventions. The interventions consisted of a single administration of 25 mL of EVOO, 150 mL of RW, or the combination of both 25 mL of EVOO and 150 mL of RW. Treatment quantities were equivalent to normal dietary doses of a typical MD. A total of twelve healthy subjects (50% women, 34.0 ± 10.5, BMI = 22.0 ± 3.3 kg/m^2) participated in the study. The study was explained to participants through verbal and written instructions, and written informed consent was obtained before participation. Volunteers received each treatment in a randomized manner. The study included three experimental sessions in which each intervention was administered under fasting conditions. Each experimental session was preceded by a two-day washout period. The total duration of the study was nine days.
On the day of the intervention, subjects consumed one of the three interventions within a period of 5–10 min. Urine was collected in separate fractions, at baseline (−2–0 h), to assess dietary compliance and during 6 h after each dietary intervention (0–6 h). The amount of urine in each fraction was measured, acidified with 6 M HCl, and stored at −20 °C until analysis. The study protocol was approved by the Ethics Committee of Parc de Salut Mar (CEIC-PSMAR) (Spain), and the clinical trial was registered at the International Standard Randomized Controlled Trial Number (NCT03614520).
Urine was subjected to a hydrolysis procedure previously described by our working group. Aliquots of 1 mL of diluted urine (1:10 in water) were spiked with 10 µL of IS (containing 10 µg/mL of diethylstilbestrol), 100 µL of sodium metabisulfite, 1 mL acetate buffer 0.1 M pH 5.2, and 25 µL of β-glucuronidase. The samples were incubated at 37 °C overnight. After incubation, 1 mL of NaOH was added to neutralize the hydrolysis process. For the extraction of the phenolic compounds, 0.5 mL of a saturated solution of NaCl and 4 mL of acetonitrile-ethyl acetate mixture (1:4 v/v) were added. Samples were mixed for 30 min, centrifuged for 5 min at 300 g, and the organic phase was extracted and evaporated until dry. After 1 h in an oven at 50 °C, the residue was derivatized with 75 µL of MSTFA: NH4I:2-mercaptoethanol reaction mixture for 30 min at 60 °C and 2 µL was injected into the gas chromatograph.
For the preparation of the calibration curves, 1 mL of diluted urine (1:10 in water) was spiked with an increasing concentration of c- and t-RESV and dihydro-RESV (10–200 ng/mL), and subjected to the extraction procedure exactly in the same way as the samples.
The extracted samples were analyzed using an Agilent Technologies (Santa Clara, CA, USA) 6890 N gas chromatograph coupled to a 5973 mass-selective detector. For chromatographic separation, a 5% phenyl-dimethyl-polysiloxane Zebron™ (Torrance, CA, USA) fused-silica capillary column (15 m × 0.25 mm i.d., 0.25 µm film thickness) was used. The split injection mode using helium as a carrier gas (0.9 mL/min) was applied. The temperatures of the injector and transfer line were set at 280 °C. Gas chromatographic conditions were as follows: initial oven temperature at 80 °C, raised by 20 °C/min to 200 °C, then by 10 °C/min to 300 °C, and maintained at 300 °C for 3 min. […] Ions at m/z 444 (RESV and piceid), m/z 179 (dihydro-RESV), and m/z 412 (diethylstilbestrol), were selected for the quantitative analysis.

[2] = Ethyl glucuronide quantification in urine (LC-MS/MS); assay type: in vivo, humans
Protocol: (§1) Volunteers received each treatment in a randomized manner. […] The total duration of the study was nine days.
Ethyl glucuronide concentration in urine was used as a marker of alcohol abstinence and compliance with the dietary recommendations before each intervention. To determine urinary concentrations of ethyl glucuronide, aliquots of 30 μL were mixed with 10 μL of IS mix solution (containing 10 μg/mL ethyl-glucuronide-d5 and ethyl-sulfate-d5) and 110 μL of 0.1% formic acid solution in water. The identification and the quantification of ethyl glucuronide were carried out using an Agilent 1200 series HPLC system (Agilent technologies) (Santa Clara, California, CA, USA) coupled to a triple quadrupole (6410 Triple Quad LC/MS; Agilent) mass spectrometer with an electrospray interface. To perform the chromatographic separation, an Acquity UPLC® BEH C18 column with a 1.7 μm particle size, 3 mm × 100 mm (Waters, Milford, MA, USA) was used. The composition of mobile phase A was 0.1% (v/v) formic acid in water, and mobile phase B was 0.1% (v/v) formic acid in acetonitrile.

[3] = Urinary recovery of HT, TYR and their metabolites (LC-MS/MS), crossover clinical trial; assay type: in vivo; settings: urine 0-6 h, n = 12, mean ± SD
Protocol: as §1
The quantification of urinary levels of HT and TYR free forms and their metabolites was performed using a solid-phase extraction and following the method previously described. The method was capable of detecting the free forms HT, TYR, and HVALc; the sulfate conjugates HT-sulfate, TYR-sulfate, and HT-acetate-sulfate; and the glucuronide conjugates HT-glucuronide, TYR-glucuronide, and HVALc-glucuronide. Shortly thereafter, aliquots of 0.5 mL of the samples were diluted with 0.5 mL of purified water and spiked with 10 µL of internal standard (containing 10 µg/mL of HT-D3, 3-(4-hydroxyphenyl)-1-propanol, 4-(3-hydroxypropylphenyl) glucuronide and HT-1-sulfate) and stabilized with 1 mL of phosphoric acid 4%. Thereafter, samples were submitted to a solid-phase extraction by means of Oasis HLB columns. Samples were loaded into the cartridges, and the cartridges were then washed with 2 mL of purified water. Finally, the compounds of interest were eluted by adding 2 mL of methanol to the cartridges. Subsequently, the methanol was evaporated until dry using nitrogen (29 °C, 10–15 psi). Finally, the dried extracts were reconstituted in 100 µL of a mixture of mobile phases (91% A/9% B v/v), transferred into HPLC vials, and analyzed by LC-MS/MS.
Identification and quantification of HT and TYR metabolites was performed using an Agilent 1200 series HPLC system (Agilent technologies, Santa Clara, California, CA, USA) coupled to a triple quadrupole (6410 Triple Quad LC/MS; Agilent) mass spectrometer with an electrospray interface. The chromatographic separation was carried out with an Acquity UPLC® BEH C18 column with a 1.7 μm particle size, 3 mm × 100 mm (Waters, Milford, MA, USA) maintained at 40 °C. The composition of mobile phase A was 0.01% of ammonium acetate (pH 5) in water; mobile phase B was pure methanol. The injection volume was 10 μL and the ion source operated in negative ionization mode.

[4] = baseline urine (-2 to 0 h), after washout diet

| Structure (SMILES) | RESV urinary recovery from 0 to 6 h ([1]; after 25 mL EVOO + 150 mL RW) | RESV urinary recovery from 0 to 6 h ([1]; after single dose 25 mL EVOO) | RESV urinary recovery from 0 to 6 h ([1]; after single dose 150 mL RW) | Urinary recovery from 0 to 6 h (single free form or metabolite) ([3]; after 25 mL EVOO + 150 mL RW) | Urinary recovery from 0 to 6 h (single free form or metabolite) ([3]; after single dose 25 mL EVOO) | Urinary recovery from 0 to 6 h (single free form or metabolite) ([3]; after single dose 150 mL RW) | further results |
| --- | --- | --- | --- | --- | --- | --- | --- |
| Oc1ccc(CCc2cc(O)cc(O)c2)cc1 [Dihydro-RESV, Dihydroresveratrol] | 13.0 ± 8.3 ^aa nmol | 0.0 ± 0.0 nmol | 10.9 ± 7.5 ^aa nmol |  |  |  | RESV urinary recovery from 0 to 6 h ([1]; after 25 mL EVOO + 150 mL RW, listed as dihydro-RESV): 13.0 ± 8.3 nmol; RESV urinary recovery from 0 to 6 h ([1]; after single dose 150 mL RW, listed as dihydro-RESV): 10.9 ± 7.5 nmol |
| CCO[C@@H]1O[C@H](C(=O)O)[C@@H](O)[C@H](O)[C@H]1O [Ethyl glucuronide] |  |  |  |  |  |  | Ethyl glucuronide recovery in urine ([2]; after EVOO (25 mL)): undetectable; Ethyl glucuronide recovery in urine ([2]; after RW + EVOO intervention): 19.3 ± 7.6 µmols; Ethyl glucuronide recovery in urine ([2]; after RW intervention (150 mL)): 19.0 ± 9.5 µmols; Ethyl glucuronide in urine at baseline [2, 4]: undetectable |
| COc1cc(CCO)ccc1O [Free HVALc, homovanillyl alcohol] |  |  |  | 247 ± 205 ^bb nmol | 269 ± 145 nmol | 110 ± 118 ^aa nmol |  |
| OCCc1ccc(O)c(O)c1 [HT, 3,4-dihydroxyphenylethanol] |  |  |  | 386 ± 289 ^bb nmol | 367 ± 221 nmol | 201 ± 173 ^aa nmol | Total urinary recovery from 0 to 6 h (sum of free form and metabolites) ([3]; after 25 mL EVOO + 150 mL RW): 6286 ± 3198 nmol; Total urinary recovery from 0 to 6 h (sum of free form and metabolites) ([3]; after 25 mL EVOO + 150 mL RW, listed as Total HT): 6286 ± 3198 ^aa bb nmol; Total urinary recovery from 0 to 6 h (sum of free form and metabolites) ([3]; after single dose 25 mL EVOO): 3788 ± 1751 nmol; Total urinary recovery from 0 to 6 h (sum of free form and metabolites) ([3]; after single dose 150 mL RW): 2308 ± 847 nmol; Total urinary recovery from 0 to 6 h (sum of free form and metabolites) ([3]; after single dose 150 mL RW, listed as Total HT): 2308 ± 847 ^a nmol |
| Oc1ccc(C=Cc2cc(O)cc(O)c2)cc1 [RESV, 3,4′,5-Trihydroxystilbene] |  |  |  |  |  |  | RESV in baseline urine samples [1, 4]: no RESV was observed |
| OCCc1ccc(O)cc1 [TYR, tyrosol] |  |  |  | 460 ± 490 ^b nmol | 404 ± 346 nmol | 132 ± 114 ^aa nmol | Total urinary recovery from 0 to 6 h (sum of free form and metabolites) ([3]; after 25 mL EVOO + 150 mL RW): 4925 ± 1751 nmol; Total urinary recovery from 0 to 6 h (sum of free form and metabolites) ([3]; after 25 mL EVOO + 150 mL RW, listed as Total TYR): 4925 ± 3993 ^aa b nmol; Total urinary recovery from 0 to 6 h (sum of free form and metabolites) ([3]; after single dose 25 mL EVOO): 2180 ± 1917 nmol; Total urinary recovery from 0 to 6 h (sum of free form and metabolites) ([3]; after single dose 150 mL RW): 2567 ± 1468 nmol |
| Oc1ccc(C=Cc2cc(O)cc(O)c2)cc1 [c-RESV, 3,4′,5-Trihydroxystilbene] | 83.8 ± 62.6 ^aa nmol | 0.0 ± 0.0 nmol | 72.8 ± 44.3 ^aa nmol |  |  |  |  |
| Oc1ccc(C=Cc2cc(O)cc(O)c2)cc1 [t-RESV, 3,4′,5-Trihydroxystilbene] | 61.7 ± 42.4 nmol and 61.7 ± 42.4 ^aa nmol | 0.0 ± 0.0 nmol | 59.2 ± 28.7 nmol and 59.2 ± 28.7 ^aa nmol |  |  |  |  |
